Source: PubChem BioAssay (NCI)
Values joined by “and” are separate entries in the source; they are usually repeats but may differ in a detail not shown here. Equal entries are not always repeated.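 Where inhibition never reached the appropriate level, the endpoint shown equals the highest concentration tested. Otherwise, values were interpolated linearly from a five-concentration, 48-hour dose response in 96-well plates. Abbreviation: GI50, concentration required for 50% inhibition of growth. At the TGI there is no net growth.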

Legend:
Assay in all cases: DTP human tumour cell line panel, 48 h
HOP-92 NSCLC = test system: HOP-92 NSCLC
SK-MEL-5 melanoma = test system: SK-MEL-5 melanoma
A549 NSCLC = test system: A549 NSCLC
A498 renal = test system: A498 renal
PC-3 prostate = test system: PC-3 prostate
UACC-62 melanoma = test system: UACC-62 melanoma
RXF 393 renal = test system: RXF 393 renal
SF-295 CNS = test system: SF-295 CNS
OVCAR-4 ovarian = test system: OVCAR-4 ovarian
MALME-3M melanoma = test system: MALME-3M melanoma

Structure (SMILES): C=C1CCC2C3(C)COC(C)(C)OC3CCC2(C)C1C/C=C1/C(=O)OCC1OC(C)=O (stereo not drawn)
- GI50 (HOP-92 NSCLC): 10.8 µM
- TGI (HOP-92 NSCLC): 24.2 µM
- GI50 (SK-MEL-5 melanoma): 4.8 µM
- TGI (SK-MEL-5 melanoma): 16.4 µM
- GI50 (A549 NSCLC): 3.5 µM
- TGI (A549 NSCLC): 12.8 µM
- GI50 (A498 renal): 16.6 µM
- TGI (A498 renal): 31.5 µM
- GI50 (PC-3 prostate): 10.2 µM
- TGI (PC-3 prostate): 26.2 µM
- GI50 (UACC-62 melanoma): 4.04 µM
- TGI (UACC-62 melanoma): 17 µM
- GI50 (RXF 393 renal): 1.6 µM
- TGI (RXF 393 renal): 3.32 µM
- GI50 (SF-295 CNS): 11.5 µM
- TGI (SF-295 CNS): 25.9 µM
- GI50 (OVCAR-4 ovarian): 2.6 µM
- TGI (OVCAR-4 ovarian): 10.1 µM
- GI50 (MALME-3M melanoma): 3.11 µM
- TGI (MALME-3M melanoma): 10.1 µM

Structure (SMILES): Cc1c2cnccc2c(C)c2c1c1cc(C#N)ccc1n2C
- GI50 (HOP-92 NSCLC): 0.18 µM
- TGI (HOP-92 NSCLC): 0.708 µM
- GI50 (SK-MEL-5 melanoma): 0.224 µM
- TGI (SK-MEL-5 melanoma): 0.591 µM
- GI50 (A549 NSCLC): 0.1 µM
- TGI (A549 NSCLC): 0.895 µM
- GI50 (A498 renal): 0.11 µM
- TGI (A498 renal): 0.285 µM
- GI50 (PC-3 prostate): 0.217 µM
- TGI (PC-3 prostate): 1.11 µM
- GI50 (UACC-62 melanoma): 0.148 µM
- TGI (UACC-62 melanoma): 0.343 µM
- GI50 (RXF 393 renal): 0.128 µM
- TGI (RXF 393 renal): 0.393 µM
- GI50 (SF-295 CNS): 0.201 µM
- TGI (SF-295 CNS): 0.859 µM
- GI50 (OVCAR-4 ovarian): 0.245 µM
- TGI (OVCAR-4 ovarian): 0.988 µM
- GI50 (MALME-3M melanoma): 0.195 µM
- TGI (MALME-3M melanoma): 0.548 µM

Structure (SMILES): CCCN1C(=O)NC(=O)C(CC)(N2C(=O)c3c(F)c(F)c(F)c(F)c3C2=O)C1=O (stereo not drawn)
- GI50 (HOP-92 NSCLC): 1.68 µM
- TGI (HOP-92 NSCLC): 3.37 µM
- GI50 (SK-MEL-5 melanoma): 2.37 µM
- TGI (SK-MEL-5 melanoma): 7.71 µM
- GI50 (A549 NSCLC): 2.84 µM
- TGI (A549 NSCLC): 8.45 µM
- GI50 (A498 renal): 3.93 µM
- TGI (A498 renal): 11.6 µM
- GI50 (PC-3 prostate): 1.95 µM
- TGI (PC-3 prostate): 5.62 µM
- GI50 (UACC-62 melanoma): 1.99 µM
- TGI (UACC-62 melanoma): 5.94 µM
- GI50 (RXF 393 renal): 2.28 µM
- TGI (RXF 393 renal): 4.45 µM
- GI50 (SF-295 CNS): 3.93 µM
- TGI (SF-295 CNS): 14.6 µM
- GI50 (OVCAR-4 ovarian): 2.22 µM
- TGI (OVCAR-4 ovarian): 4.83 µM
- GI50 (MALME-3M melanoma): 2.06 µM
- TGI (MALME-3M melanoma): 5.31 µM

Structure (SMILES): CC1CC(C)CC(C)C(O)/C(C#N)=C/C=C/CC(C2CCCC2C(=O)O)OC(=O)CC(O)C(C)C1 (stereo not drawn)
- TGI (HOP-92 NSCLC): 0.0513 µM and 0.0143 µM
- GI50 (SK-MEL-5 melanoma): 0.0282 µM and 0.0232 µM
- TGI (SK-MEL-5 melanoma): 0.122 µM and 0.0932 µM
- GI50 (A549 NSCLC): 0.0681 µM
- TGI (A549 NSCLC): 0.496 µM and 0.919 µM
- GI50 (A498 renal): 0.0152 µM
- TGI (A498 renal): 0.0482 µM and 0.0186 µM
- GI50 (PC-3 prostate): 0.0434 µM
- TGI (PC-3 prostate): 0.205 µM and 0.208 µM
- GI50 (UACC-62 melanoma): 0.0112 µM
- TGI (UACC-62 melanoma): 0.0296 µM and 0.015 µM
- GI50 (RXF 393 renal): 0.00363 µM
- TGI (RXF 393 renal): 0.0304 µM and 0.0273 µM
- TGI (SF-295 CNS): 0.203 µM and 0.222 µM
- GI50 (OVCAR-4 ovarian): 0.126 µM
- TGI (OVCAR-4 ovarian): 0.51 µM and 1.89 µM
- GI50 (MALME-3M melanoma): 0.115 µM
- TGI (MALME-3M melanoma): 0.312 µM and 0.106 µM

Structure (SMILES): c1ccc(NN(Cc2cnccn2)c2ccccc2)cc1
- TGI (HOP-92 NSCLC): 89.7 µM
- TGI (SK-MEL-5 melanoma): > 100 µM
- TGI (A549 NSCLC): > 100 µM
- TGI (A498 renal): > 100 µM
- TGI (PC-3 prostate): > 100 µM
- TGI (UACC-62 melanoma): > 100 µM
- TGI (RXF 393 renal): > 100 µM
- TGI (SF-295 CNS): > 100 µM
- TGI (OVCAR-4 ovarian): > 100 µM
- TGI (MALME-3M melanoma): > 100 µM

Structure (SMILES): O=C(NCC1CC1)c1ccc(-c2cccc(C(=O)NC3CC3)c2)cc1
- GI50 (HOP-92 NSCLC): 6.66 µM
- TGI (HOP-92 NSCLC): > 25 µM
- GI50 (SK-MEL-5 melanoma): > 25 µM
- TGI (SK-MEL-5 melanoma): > 25 µM
- GI50 (A549 NSCLC): > 25 µM
- TGI (A549 NSCLC): > 25 µM
- GI50 (A498 renal): > 15.8 µM
- TGI (A498 renal): > 25 µM
- GI50 (PC-3 prostate): > 25 µM
- TGI (PC-3 prostate): > 25 µM
- GI50 (UACC-62 melanoma): > 25 µM
- TGI (UACC-62 melanoma): > 25 µM
- GI50 (RXF 393 renal): > 25 µM
- TGI (RXF 393 renal): > 25 µM
- GI50 (SF-295 CNS): > 25 µM
- TGI (SF-295 CNS): > 25 µM
- GI50 (OVCAR-4 ovarian): > 25 µM
- TGI (OVCAR-4 ovarian): > 25 µM
- GI50 (MALME-3M melanoma): > 25 µM
- TGI (MALME-3M melanoma): > 25 µM

Structure (SMILES): CC(=O)Nc1ccc(-c2cc(C(=O)O)c3cc4ccccc4cc3n2)cc1
- TGI (HOP-92 NSCLC): > 100 µM
- TGI (SK-MEL-5 melanoma): > 100 µM
- TGI (A549 NSCLC): > 100 µM
- TGI (A498 renal): > 100 µM
- TGI (PC-3 prostate): > 100 µM
- TGI (UACC-62 melanoma): > 100 µM
- TGI (RXF 393 renal): > 100 µM
- TGI (SF-295 CNS): > 100 µM
- TGI (OVCAR-4 ovarian): > 100 µM
- TGI (MALME-3M melanoma): > 100 µM

Structure (SMILES): CCC1(O)C(=O)OCc2c1cc1n(c2=O)Cc2cc3ccccc3nc2-1 (stereo not drawn)
- TGI (HOP-92 NSCLC): 23.9 µM
- TGI (SK-MEL-5 melanoma): 0.312 µM
- TGI (A549 NSCLC): 0.334 µM
- TGI (A498 renal): 4.15 µM
- TGI (PC-3 prostate): 23.9 µM
- TGI (UACC-62 melanoma): 0.0379 µM
- TGI (RXF 393 renal): 0.527 µM
- TGI (SF-295 CNS): 0.226 µM
- TGI (OVCAR-4 ovarian): > 100 µM
- TGI (MALME-3M melanoma): 11.8 µM

Structure (SMILES): CCc1c2c(nc3ccc(OCc4ccc(B(O)O)cc4)cc13)-c1cc3c(c(=O)n1C2)COC(=O)[C@]3(O)CC
- GI50 (HOP-92 NSCLC): 0.0366 µM
- TGI (HOP-92 NSCLC): 4.36 µM
- GI50 (SK-MEL-5 melanoma): 0.0244 µM
- TGI (SK-MEL-5 melanoma): 0.173 µM
- GI50 (A549 NSCLC): 0.0681 µM
- TGI (A549 NSCLC): > 32.3 µM
- GI50 (A498 renal): 0.0128 µM
- TGI (A498 renal): 0.21 µM
- GI50 (PC-3 prostate): 0.164 µM
- TGI (PC-3 prostate): > 75.5 µM
- GI50 (UACC-62 melanoma): < 0.01 µM
- TGI (UACC-62 melanoma): 0.155 µM
- GI50 (RXF 393 renal): 0.0232 µM
- TGI (RXF 393 renal): 0.142 µM
- GI50 (SF-295 CNS): < 0.01 µM
- TGI (SF-295 CNS): 7.53 µM
- GI50 (OVCAR-4 ovarian): 0.399 µM
- TGI (OVCAR-4 ovarian): 29.7 µM
- GI50 (MALME-3M melanoma): 0.0576 µM
- TGI (MALME-3M melanoma): 1.59 µM
